Laboratory results reported in patent publication US20090087376A1, “Heterocyclic Dye Compounds For In Vivo Imaging And Diagnosis Of Alzheimer's Disease” (The General Hospital Corporation, priority 2004, published 2009).

Legend:
[1] = Near-IR spectra of dye compounds; assay type: physicochemical
β-amyloid plaques = test: Plaque specificity of dye compounds; assay type: binding
Enter CNS (BBB) = conditions: in vivo

Row | Near-IR spectra [1] | Enter CNS (BBB) (Enter CNS (BBB)) | SMILES | Plaque specificity (β-amyloid plaques)
1 | Yes | No | C[N+]1=C(/C=C/c2ccc(-c3ccc(-c4ccc(O)cc4)s3)s2)C(C)(C)c2ccccc21.[Cl-] [NIAD3] | Yes
2 | Yes | No | CN(C)c1ccc(-c2sc(-c3ccc(C=C(C#N)C#N)s3)c3ccccc23)cc1 [NIAD6] | Yes
3 | Yes | Yes/No | CC1(C)C(/C=C/c2ccc(-c3ccc(-c4ccc(O)cc4)s3)s2)=[N+](CCCS(=O)(=O)[O-])c2ccccc21 [NIAD1] | Yes
4 | No | Yes | CN(C)c1ccc(-c2ccc(-c3ccc(C=C4C(=C(C#N)C#N)c5ccccc5C4=C(C#N)C#N)s3)s2)cc1 [NIAD7] | Yes
